Patent US20080261945A1, “Compounds Having Activity at Nk3 Receptor and Uses Thereof in Medicine” (SMITHKLINE BEECHAM CORPORATION, priority 2004, published 2008)
pKi: −log10 of the molar value.

Biological target: T1, NK3 receptor (Homo sapiens, UniProt P29371)
T1 construct: expressed in transfected cells; host or cells: CHO cell lines (plasma membrane preparation)
T1 sequence (P29371 1-465): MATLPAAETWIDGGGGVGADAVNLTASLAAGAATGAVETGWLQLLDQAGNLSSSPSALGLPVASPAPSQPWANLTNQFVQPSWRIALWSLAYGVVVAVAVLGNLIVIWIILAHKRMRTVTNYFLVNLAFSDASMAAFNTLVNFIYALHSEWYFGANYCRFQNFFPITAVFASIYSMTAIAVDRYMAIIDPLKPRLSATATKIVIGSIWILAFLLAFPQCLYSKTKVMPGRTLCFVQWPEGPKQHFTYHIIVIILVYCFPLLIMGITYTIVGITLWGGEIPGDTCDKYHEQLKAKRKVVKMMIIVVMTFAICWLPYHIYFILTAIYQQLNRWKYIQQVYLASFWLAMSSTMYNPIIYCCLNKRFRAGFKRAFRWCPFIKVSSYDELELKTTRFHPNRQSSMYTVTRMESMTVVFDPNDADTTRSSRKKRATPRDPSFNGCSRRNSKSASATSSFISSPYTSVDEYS
Test: NK3 binding affinity, scintillation proximity assay (SPA)
Details: 125I [MePhe7]-NKB; plasma membrane from CHO cell lines expressing NK3 receptors
Description: The NK3 binding affinity of the compounds of the invention was determined using the following scintillation proximity assay (SPA) (see H. M. Sarau et al, J. Pharmacol. Experimental Therapeutics 1997, 281(3), 1303-1311; H. M. Sarau et al, J. Pharmacol. Experimental Therapeutics 2000, 295(1), 373-381; G. A. M. Giardina et al J. Med. Chem. 1999, 42, 1053-1065). Polystyrene Leadseeker WGA-SPA beads (Amersham Biosciences) were mixed with plasma membrane prepared from CHO cell lines expressing NK3 receptors in a bead/membrane ratio of 20:1 (w/w) in assay buffer (75 mM Tris pH 7.8, 75 mM NaCl, 4 mM MnCl2, 1 mM EDTA, 0.05% Chaps, 1 mM PMSF). The mixture was placed on ice for 20 minutes to allow the formation of membrane/bead complex before BSA was added to a final concentration of 1%. After another 20 minutes incubation on ice, the bead/membrane complex was washed twice and suspended in assay buffer. ^125I [MePhe7]-NKB was then added to the bead/membrane complex. […] After 2-3 hours incubation at room temperature with shaking, the plates were spun for 2 min at 1100 rpm and measured in Viewlux imager (PerkinElmer) for 5 minutes with a 618-nm filter. Inhibition of the radioactive ligand binding to the NK3 receptor was measured by the reduction of signal. pKi was calculated using Kd of the radioactive ligand determined in a separate experiment.

## CC[C@H](NC(=O)c1c(COC[C@@H]2CCCN2C)c(-c2ccccc2)nc2ccccc12)c1ccccc1 [Example 1, 3-[({[(2S)-1-Methyl-2-pyrrolidinyl]methyl}oxy)methyl]-2-phenyl-N-[(1S)-1-phenylpropyl]-4-quinolinecarboxamide]
  pKi: 8.20
